Measurements taken from patent publication US20250388623A1, “PEPTIDE INHIBITOR AND USE THEREOF” (CHENGDU BRILLIANT INSPIRATION BIOTHERAPEUTICS CO., LTD, priority 2022, published 2025).

Assays:
[1] = target: T1, binding of TSP-1 protein to CD36, a TSP-1 receptor protein (Homo sapiens, UniProt P07996); assay: ELISA: blocking of CD36 binding to TSP-1 protein
T1 construct: purchased novoprotein (TSP-1); R&D Systems (Fc-tagged CD36) CU45 (TSP-1); 1955-CD-050 (CD36-Fc)
Procedure: ELISA assay was performed to detect the ability of the polypeptides to block the binding of TSP-1 protein to CD36, a TSP-1 receptor protein. TSP-1 protein (novoprotein, Catalog No. CU45) was diluted to 2 μg/mL using 100 mM carbonate buffer and added to sample wells (100 μL/well) of a 96-well ELISA plate (Thermo, Catalog No. 437111), and incubated overnight at 4° C.; after washing the plate twice using 1×PBST wash solution, 200 μL of 1.5% BSA (Sigma, Catalog No. B2064) was added to each well, and incubated at 37° C. for 2 h; after washing the plate 3 times using 1×PBST wash solution, the analytes were added (100 μL/well, 3 replicate wells; for the control group, 0.25 μg/mL of Fc-tagged CD36 protein (R&D Systems, Catalog No. 1955-CD-050); and for the polypeptide-treated groups, a mixture containing Fc-tagged CD36 protein and polypeptide at final concentrations of 0.25 μg/mL and 100 μM, respectively), and incubated at 37° C. for 3 h. After washing the plate 5 times using 1×PBST wash solution, a 1:500 dilution solution of FITC-labeled anti-Fc-tagged antibody (Beyotime, Catalog No. A0556) was added, and incubated for 1 h at 37° C.; after washing the plate 5 times using 1×PBST wash solution, a multifunctional ELISA instrument (TECAN, model: Infinite 200 Pro) was used to detect the intensity of FITC fluorescence signal in each sample well. The ability of the polypeptides to block CD36 binding to TSP-1 protein (Table 2-1) was assessed by calculating the ratio of the fluorescence signal from the polypeptide-treated groups to that of the control group, allowing for the determination of the blocking rate of the polypeptides in inhibiting CD36 binding to TSP-1 protein, i.e., (fluorescence signal of the control group-fluorescence signal of the polypeptide-treated group)/fluorescence signal of the control group×100%. Based on the blocking rate results obtained at the single concentration and on the polypeptide molecule properties, the preferred polypeptide molecules were assayed for concentration dependence (at 0 μM, 0.5 μM, 1 μM, 5 μM, 10 μM, and 100 μM), and IC50 values of the polypeptides for blocking CD36 binding to TSP-1 protein were determined to further assess the abilities of the preferred polypeptide molecules to block the binding of CD36 to TSP-1 (Table 2-2).

active TGF-β = assay: Active TGF-β level in lung tissue, bleomycin (BLM) mouse lung fibrosis model; format: in vivo; settings: single intratracheal dose 3 mg/kg on Day 7, lung 24 h later; BLM model group = 100.00
Text: This Example was to evaluate the inhibitory effect of polypeptides on active TGF-β level during the progression of fibrotic disease. In this Example, a mouse lung fibrosis model induced by bleomycin (BLM) was used. The BLM animal model offers advantages, including a close mimicry of the pathological features of the primary disease, ease of use, and good reproducibility. It is the most representative model for studying the mechanisms of fibrosis and is recommended for evaluating drug efficacy.
In this Example, 6 to 8-week-old male C57/6J mice weighing 18-20 g were used as subjects for the study. The experimental animals were randomized into groups, 8 animals in each group, and the expressions of pro-fibrotic factors were detected at the endpoint of the experiment (Day 8) in this model. In this example, an aerosol intratracheal metered dosing applicator (Yuyan, model YAN30012) was utilized for intratracheal administration during the modeling and drug delivery processes. The dosing was performed as follows (An Official American Thoracic Society Workshop Report: Use of Animal Models for the Preclinical Assessment of Potential Therapies for Pulmonary Fibrosis, Am J Respir Cell Mol Biol Vol 56, Iss 5, pp 667-679, May 2017): The experimental animals were anesthetized with aerosolized isoflurane (RWD, lot no. 22041701) using a small animal anesthesia machine (RWD, model R500IE). Animals in the appropriate anesthetic state were positioned supine with heads facing up and bodies tilted on an operating platform (tilted at approximately) 60°, secured by their incisors. The practitioner gently lifted the tongue with tissue forceps in the right hand, pushing it outward and upward to open the animal's lower jaw. Holding the laryngoscope (Yuyan, model SR310-RW) in the left hand, the practitioner slid its anterior leaf-shaped blade along the midline of the tongue into the oral cavity until reaching the glottis, gently pressing the body and root of the tongue upward. The needle of the drug applicator was then inserted through the mouth into the glottis alongside the laryngoscope, and 50 μL of liquid was quickly injected. On the day of modeling (Day 1), the experimental animals were randomly assigned to groups and administered a 0.7 USP/kg dose of bleomycin solution (HanHui Pharmaceutical, Batch No. 20080511) via the tracheal route to induce the model. On Day 7, each peptide-treated group received a single intratracheal dose of 50 μL peptide drug (at a dosage of 3 mg/kg), while the model group was given an equal volume of solvent (saline, Kelong, Batch No. L221062501) as a control. Twenty-four hours after drug administration, the animals were dissected to collect lung tissue, which was ground in liquid nitrogen to extract total protein from the lung tissue. The active TGF-β content in the lung tissue of mice from each group was measured using the TGF-β ELISA kit (BOSTER, catalog number EK0515). The ratio of active TGF-β content between the peptide-treated group and the model group was calculated to evaluate the effect of the peptide on active TGF-β level.

P-Smad2/3 = P-Smad2/3 content in lung tissue, BLM mouse fibrosis model; format: in vivo; settings: single intratracheal dose 3 mg/kg on Day 7, lung 24 h later; BLM model group = 100.00
Text: This example aimed to evaluate the inhibitory effect of polypeptides on the TGF-β downstream signaling pathway during fibrosis progression. TGF-β intracellular signaling relies on the phosphorylation events of Smad family proteins. The increase in Smad2/3 phosphorylation levels is an important indicator that signal transduction has occurred in the TGF-β signaling pathway.
In this example, 6- to 8-week-old male C57/6J mice weighing 18-20 g were used as subjects for the study. The experimental animals were randomized into groups, eight animals in each group. In this example, intratracheal administration was performed using an aerosol intratracheal metered dosing applicator during both the modeling and drug delivery processes, as described in Example 4. On the day of modeling (Day 1), the experimental animals were randomly assigned to groups and administered a 0.7 USP/kg dose of bleomycin solution (HanHui Pharmaceutical, Batch No. 20080511) via the tracheal route to induce the model. On Day 7, each peptide-treated group received a single intratracheal dose of peptide drug at a dosage of 3 mg/kg, while the BLM model group was given an equal volume of solvent (saline) as a control. Twenty-four hours after drug administration, the animals were dissected, and the lung tissues were collected and frozen in liquid nitrogen for future use. Total protein from the lung tissue was extracted after grinding the tissue in liquid nitrogen, and the total P-Smad2/3 content in the tissue was measured by using P-Smad2/3 ELISA kit (CST, Catalog No. 12001C). The ratio of the P-Smad2/3 content between the peptide-treated group and the model group was calculated to evaluate the effect of the peptide on TGFβ signaling.

[2] = system: human breast cancer MCF7 cells; assay: Transwell tumor cell migration, co-culture with PMA-differentiated THP-1 cells; format: cell-based; settings: 100 μM polypeptide 48 h, co-culture 48 h; negative control group = 100.00
Procedure: (§1) This Example was to assess the effects of polypeptides on the migration abilities of different tumor cells. The experiment was performed using transwell nested chambers (membrane pore size of 8 μm), where THP-1 cells were inoculated in the lower chamber and treated with 300 nM PMA (Sigma, Catalog No.P1585) for differentiation and chamber-wall adherence, and then treated with 100 μM polypeptide (in the negative control, an equal volume of solvent was added) for 48 hours. The upper chamber was inoculated with tumor cells, human lung adenocarcinoma A549 cells (American Typical Culture Collection, ATCC, CCL-18), and co-cultured for 24 hours; or inoculated with human liver cancer HepG2/C3A cells (ATCC, CRL-10741), and co-cultured for 24 h; or inoculated with human breast cancer MCF7 cells (ATCC, HTB-22), and co-cultured for 48 h. After that, the upper chamber was taken out, fixed with 70% ethanol for 10 min and washed, then stained with Giemsa staining solution (Beyotime, Catalog No.C0131) for 45 min. After washing with double distilled water 2-3 times, unmigrated cells were wiped off the upper layer with a cotton swab. After the chamber was dried, it was observed under a microscope, and five different fields of view under a 100× magnification were randomly selected for counting and statistics. The polypeptides had significant inhibitory effects on the migratory abilities of human lung adenocarcinoma cells, human liver cancer cells, and human breast cancer cells.

[3] = system: human liver cancer HepG2/C3A cells; assay: as above; format: cell-based; settings: 100 μM polypeptide 48 h, co-culture 24 h; negative control group = 100.00
Procedure: as §1

[4] = system: human lung adenocarcinoma A549 cells; assay: as above; format: cell-based; settings: 100 μM polypeptide 48 h, co-culture 24 h; negative control group = 100.00
Procedure: as §1

[5] = system: TSP-1-dependent TGF-β activation; assay: TSP-1-dependent TGF-β activation in PMA-differentiated THP-1 cells with 293-TGFβ Res reporter cells; format: cell-based; settings: 100 μM polypeptide, 24 h; ratio to negative control group (1.00)
Procedure: In this Example, the inhibitory effects of the polypeptides on TSP-1-dependent TGF-β activation were detected using a model based on a high TSP-1 expressing cell. In the assay, THP-1 cells (American Typical Culture Collection, ATCC, TIB-20) were induced by phorbol ester (Phorbol 12-myristate 13-acetate, PMA) (Sigma, Catalog No. P1585) and differentiated into macrophage-like cells with distinct macrophage expression profiles.
The experiment was performed as follows: THP-1 cells were inoculated in a 96-well plate, and treated with 300 nM PMA for differentiation and adherence to form macrophage-like cells. 100 μM polypeptide was added (For the negative control group, an equal volume of PBS (the solvent for the polypeptide) was added, while the positive control group received an equal concentration of the polypeptide shown in SEQ ID NO: 50.) The cells were treated for 24 hours, and then a 293 reporter cell strain, 293-TGFβ Res cell strain (novoprotein, Catalog No. XCC03-1), was added for detecting TGF-β activity, and co-cultivated for 24 hours. Bio-Lite Luciferase Assay lysate comprising fluorescent substrate (Vazyme, Catalog No. DD1201-01) was added, and the fluorescent intensity was detected using a multifunctional microplate reader (TECAN, model Infinite 200 Pro). The inhibitory effect of the polypeptide on TGF-β activation was assessed by calculating the ratio of the fluorescence signal from the polypeptide-treated groups to that of the negative control group.

[6] = system: mouse lung fibrosis model induced by bleomycin (BLM); assay: Inflammatory and fibrotic pathology (HE, Masson's trichrome) in BLM mouse fibrosis model; format: in vivo; set-up: scale not given here
Procedure: This Example was to assess the inhibitory effect of polypeptides on fibrotic pathology. 6- to 8-week-old male C57/6J mice weighing 18-20 g were used as subjects for the study. The experimental animals were randomized into groups, 6 animals in each group. On the day of modeling (Day 1), a single dose of 0.7 USP/kg of BLM solution was administered via the tracheal route to the BLM group and each peptide-treated group to induce the model. The negative control group received an equal volume of saline. Treatment dosing started on Day 8. Each peptide-treated group received the peptide drug intratracheally at a dosage of 3 mg/kg, while the positive control group received the peptide of SEQ ID NO: 50 at the same dosage, and the administration frequency was twice a week, with a total of 4 administrations. The BLM model group and the negative control group received an equal volume of solvent (saline) as a control. The procedure followed that described in Example 4.
On Day 21, the lung tissues were dissected, washed with saline to remove blood stains, and dried with gauze. Histopathological analysis was then performed on the dissected lung tissues. The lung tissues were perfused with 0.5 mL of paraformaldehyde via the trachea and placed in 4 mL of paraformaldehyde. A small amount of gauze was added to ensure the lung tissues were completely immersed in the fixative solution. The tissues were fixed for more than 24 hours. One lobe of the left lung and four lobes of the right lung were trimmed to the maximum coronal plane, placed in an embedding cassette, dehydrated overnight, and then paraffin-embedded to make 3 μm sections. An autostainer (Leica, model ST5010) was used for Hematoxylin (Herst, lot no. 201905)-Eosin (Chron, lot no.2018070301) (HE) staining, and MASSON'S trichrome (Celestineblue, Chron, lot no. MKCH8129; Aniline blue, Yuanye, lot no. H70J11S115483; Ponceau, Sigma, lot no. SHBM2047) staining. After mounting the sections, they were scanned using a digital panoramic scanner (Zhiyue, model WS-10). For each lung lobe, ≤10 visual fields were captured under a 20× magnification. The severity of inflammation and the severity of fibrosis were assessed using HE staining and Masson's trichrome staining, respectively, to evaluate the inhibitory effects of the polypeptides on inflammatory infiltration and fibrotic deposition at pathological fibrotic sites.

[7] = 100 μM polypeptide, 0.25 μg/mL Fc-tagged CD36, blocking of CD36 binding to TSP-1

T1 sequence (P07996 19-1170): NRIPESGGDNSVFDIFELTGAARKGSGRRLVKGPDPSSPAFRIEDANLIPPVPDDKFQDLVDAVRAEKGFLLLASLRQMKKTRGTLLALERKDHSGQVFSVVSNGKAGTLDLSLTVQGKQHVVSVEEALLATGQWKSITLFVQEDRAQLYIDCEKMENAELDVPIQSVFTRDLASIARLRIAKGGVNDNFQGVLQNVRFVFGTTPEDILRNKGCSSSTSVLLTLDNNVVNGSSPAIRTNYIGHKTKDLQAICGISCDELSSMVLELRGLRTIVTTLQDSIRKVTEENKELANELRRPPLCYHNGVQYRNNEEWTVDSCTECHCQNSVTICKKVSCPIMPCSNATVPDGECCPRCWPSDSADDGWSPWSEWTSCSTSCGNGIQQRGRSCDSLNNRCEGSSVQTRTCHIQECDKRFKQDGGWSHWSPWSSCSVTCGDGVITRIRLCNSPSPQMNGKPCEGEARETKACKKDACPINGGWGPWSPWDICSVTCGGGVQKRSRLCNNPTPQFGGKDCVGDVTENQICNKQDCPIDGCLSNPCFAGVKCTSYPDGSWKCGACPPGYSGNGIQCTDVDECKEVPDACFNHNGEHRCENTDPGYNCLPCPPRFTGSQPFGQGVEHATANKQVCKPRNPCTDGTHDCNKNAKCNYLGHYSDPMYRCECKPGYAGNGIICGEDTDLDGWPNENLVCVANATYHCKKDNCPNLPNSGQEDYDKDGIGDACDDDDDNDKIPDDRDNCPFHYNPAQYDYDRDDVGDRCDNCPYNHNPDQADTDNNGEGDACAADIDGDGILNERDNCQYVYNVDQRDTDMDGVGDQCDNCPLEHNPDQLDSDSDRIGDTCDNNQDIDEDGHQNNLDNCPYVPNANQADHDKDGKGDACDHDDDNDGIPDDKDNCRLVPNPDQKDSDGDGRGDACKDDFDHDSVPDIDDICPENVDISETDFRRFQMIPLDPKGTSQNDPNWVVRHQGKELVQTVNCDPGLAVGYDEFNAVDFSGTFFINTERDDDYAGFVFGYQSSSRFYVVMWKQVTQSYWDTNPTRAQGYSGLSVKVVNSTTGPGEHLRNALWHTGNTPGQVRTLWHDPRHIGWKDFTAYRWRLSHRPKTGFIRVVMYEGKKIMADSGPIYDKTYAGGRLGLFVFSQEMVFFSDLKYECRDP

Ac-Gln-Asp-Ala-Glu-Asp-Asn-NH2 (Ac-QDAEDN-NH2) [SEQ ID NO: 05]
Blocking rate (Mean, %) [1, 7]: 15.07% | active TGF-β content in lung tissue, ratio to model group, Mean(%) (active TGF-β): 74.15% | P-Smad2/3 content in lung tissue, ratio to model group, Mean(%) (P-Smad2/3): 72.35% | MCF7 migration Mean (%) [2]: 42.55% | HEPG2/C3A migration Mean (%) [3]: 74.72% | A549 migration Mean (%) [4]: 63.92%

Ac-Thr-Gln-Asp-Ala-Glu-Asp-NH2 (Ac-TQDAED-NH2) [SEQ ID NO: 04]
Blocking rate (Mean, %) [1, 7]: 16.89% | active TGF-β content in lung tissue, ratio to model group, Mean(%) (active TGF-β): 74.10% | P-Smad2/3 content in lung tissue, ratio to model group, Mean(%) (P-Smad2/3): 67.91% | MCF7 migration Mean (%) [2]: 62.78% | HEPG2/C3A migration Mean (%) [3]: 81.13% | A549 migration Mean (%) [4]: 57.90%

H-YRVRFLAKENVTQDAEDN-OH [SEQ ID NO: 50, Tyr-Arg-Val-Arg-Phe-Leu-Ala-Lys-Glu-Asn-Val-Thr-Gln-Asp-Ala-Glu-Asp-Asn, reference compound]
inhibition at 100 µM ([1]; 3 h, 100 μM polypeptide, 0.25 μg/mL Fc-tagged CD36, blocking of CD36 binding to TSP-1, read-out: Blocking rate (Mean, %)): 23.4% | IC50 ([1]; concentrations 0-100 μM): 10.6 µM | Mean (relative fluorescence intensity) [5]: 0.84 | Inflammatory score Mean ([6]; 3 mg/kg intratracheal twice weekly x4 from Day 8, Day 21, HE staining, BLM model 2.25, negative control 0.36): 1.98 | Fibrosis score Mean ([6]; 3 mg/kg intratracheal twice weekly x4 from Day 8, Day 21, Masson's trichrome, BLM model 3.25, negative control 1.01): 2.81
